Tested on: Phospholipidosis
Experiment: Literature-mined public compounds from Lowe et al phospholipidosis modelling dataset

Row | Compound | Phospholipidosis
1 | CC(c1cc2ccccc2s1)N(O)C(N)=O (configuration not stated) [ZILEUTON] | Negative
2 | CC(C)(N)Cc1ccc(Cl)cc1 [CHLORPHENTERMINE] | Positive
3 | NCCc1cc(O)c(O)c(O)c1 | Positive
4 | C=C1C[C@@H]1C[C@H](N)C(=O)O | Negative
5 | Cc1cccc(Nc2cc(Cl)nc(SCC(=O)O)n2)c1C [PIRINIXIC ACID] | Negative
6 | CN(C)CCN(Cc1ccccc1)c1ccccn1 [TRIPELENNAMINE] | Positive
7 | Nc1nc(NC2CC2)c2ncn([C@H]3C=C[C@@H](CO)C3)c2n1 [ABACAVIR] | Negative
8 | CCOc1ccc(NC(C)=O)cc1 [PHENACETIN] | Positive
9 | [N-]=[N+]=CC(=O)OC[C@H](N)C(=O)O [AZASERINE] | Negative
10 | C=C[C@H]1C[N@@]2CC[C@H]1C[C@@H]2[C@@H](O)c1ccnc2ccc(OC)cc12 [QUINIDINE] | Positive
11 | COCCCC/C(=N\OCCN)c1ccc(C(F)(F)F)cc1 [FLUVOXAMINE] | Positive
12 | CN1CCN(C(c2ccccc2)c2ccc(Cl)cc2)CC1 (configuration not stated) [CHLORCYCLIZINE] | Positive
13 | Nc1c(Br)cc(Br)cc1CN[C@H]1CC[C@H](O)CC1 [AMBROXOL] | Positive
14 | CN(C)CCCN1c2ccccc2Sc2ccccc21 [PROMAZINE] | Positive
15 | CCC[C@@H]1C[C@@H](C(=O)N[C@@H]([C@H]2O[C@H](SC)[C@H](O)[C@@H](O)[C@H]2O)[C@H](C)Cl)N(C)C1 [CLINDAMYCIN] | Positive
16 | Cc1ccc2cc3c(ccc4ccccc43)c3c2c1CC3 [3-METHYLCHOLANTHRENE] | Negative
17 | CCC(c1ccc(OCCN(CC)CC)cc1)C(CC)c1ccc(OCCN(CC)CC)cc1 (configuration not stated) [CORALGIL] | Positive
18 | CCN[C@@H]1C[C@H](N)[C@@H](O[C@H]2OC(CN)=CC[C@H]2N)[C@H](O)[C@H]1O[C@H]1OC[C@](C)(O)[C@H](NC)[C@H]1O [NETILMICIN] | Positive
19 | CC(=O)Nc1ccc(O)cc1 [ACETAMINOPHEN] | Negative
20 | CC[C@]1(O)C[C@@H]2CN(CCc3c([nH]c4ccccc34)[C@@](C(=O)OC)(c3cc4c(cc3OC)N(C)[C@H]3[C@@](O)(C(=O)OC)[C@H](OC(C)=O)[C@]5(CC)C=CCN6CC[C@]43[C@@H]65)C2)C1 [VINBLASTINE] | Negative
21 | NC(=O)N1c2ccccc2C=Cc2ccccc21 [CARBAMAZEPINE] | Negative

Row | Compound | Phospholipidosis
22 | C[n+]1ccc(-c2cc[n+](C)cc2)cc1 | Positive
23 | CC(=O)N(O)CCCCCNC(=O)CCC(=O)N(O)CCCCCNC(=O)CCC(=O)N(O)CCCCCN [DEFEROXAMINE] | Negative
24 | Clc1ccc(C(c2ccccc2)N2CCNCC2)cc1 (configuration not stated) [NORCHLORCYCLIZINE] | Positive
25 | CCCNCCc1ccc(NS(=O)(=O)c2ccc(OC(F)(F)F)cc2)cc1 | Positive
26 | NC(=O)c1ccccc1 [BENZAMIDE] | Positive
27 | CNCCC(Oc1ccc(C(F)(F)F)cc1)c1ccccc1 (configuration not stated) [FLUOXETINE] | Positive
28 | COc1cc2c(cc1OC)C(=O)C(CC1CCN(Cc3ccccc3)CC1)C2 (configuration not stated) [DONEPEZIL] | Negative
29 | CN(C)[C@@H]1C(O)=C(C(N)=O)C(=O)[C@@]2(O)C(O)=C3C(=O)c4c(O)cccc4[C@@](C)(O)[C@H]3C[C@@H]12 [TETRACYCLINE] | Negative
30 | CCCCc1oc2ccccc2c1C(=O)c1cc(I)c(OCCN(CC)CC)c(I)c1 [AMIODARONE] | Positive
31 | C=CC1=C(C)/C(=C/c2[nH]c(Cc3[nH]c(/C=C4\NC(=O)C(C)=C4C=C)c(C)c3CCC(=O)O)c(CCC(=O)O)c2C)NC1=O [BILIRUBIN] | Positive
32 | CCC[C@@H](NC(=O)N1C(=O)C(CC)(CC)[C@@H]1Oc1ccc(C(=O)N2CCN(C)CC2)cc1)c1ccc2c(c1)OCO2 | Positive
33 | CC/C(=C(\c1ccccc1)c1ccc(OCCN(C)C)cc1)c1ccccc1 [TAMOXIFEN] | Positive
34 | CC(CN1c2ccccc2Sc2ccccc21)N(C)C (configuration not stated) [PROMETHAZINE] | Positive
35 | CCOC(=O)C(C)(C)Oc1ccc(Cl)cc1 [CLOFIBRATE] | Negative
36 | CN(Cc1cc(Br)cc(Br)c1N)C1CCCCC1 [BROMHEXINE] | Positive
37 | CC[C@H]1OC(=O)[C@H](C)[C@@H](O[C@H]2C[C@@](C)(OC)[C@@H](O)[C@H](C)O2)[C@H](C)[C@@H](O[C@@H]2O[C@H](C)C[C@H](N(C)C)[C@H]2O)[C@](C)(O)C[C@@H](C)C(=O)[C@H](C)[C@@H](O)[C@]1(C)O [ERYTHROMYCIN] | Positive
38 | CC1(C)OCC(C(CS(=O)(=O)c2ccc(Oc3cccc(OC(F)(F)F)c3)cc2)NC=O)O1 (configuration not stated) | Negative
39 | CC(O)(CS(=O)(=O)c1ccc(F)cc1)C(=O)Nc1ccc(C#N)c(C(F)(F)F)c1 (configuration not stated) [BICALUTAMIDE] | Negative
40 | OCCOCCN1CCN(C(c2ccccc2)c2ccc(Cl)cc2)CC1 (configuration not stated) [HYDROXYZINE] | Positive
41 | CN(C)[C@@H]1C(O)=C(C(=O)NCN2CCCC2)C(=O)[C@@]2(O)C(O)=C3C(=O)c4c(O)cccc4[C@@](C)(O)[C@H]3C[C@@H]12 [ROLITETRACYCLINE] | Negative
42 | CN(C)C/C=C(/c1ccc(Br)cc1)c1cccnc1 [ZIMELDINE] | Positive

Row | Compound | Phospholipidosis
43 | Cc1cn([C@H]2C=C[C@@H](CO)O2)c(=O)[nH]c1=O [STAVUDINE] | Negative
44 | CCCC[C@@H]1CC(=O)[C@]2(O)O[C@@H]3[C@@H](NC)[C@@H](O)[C@@H](NC)[C@H](O)[C@H]3O[C@@H]2O1 [TROSPECTOMYCIN] | Positive
45 | C[C@H]1COc2c(N3CCN(C)CC3)c(F)cc3c(=O)c(C(=O)O)cn1c23.C[C@H]1COc2c(N3CCN(C)CC3)c(F)cc3c(=O)c(C(=O)O)cn1c23.O [LEVOFLOXACIN] | Negative
46 | NC(=O)NO [HYDROXYUREA] | Negative
47 | CN(C)CCCC1(c2ccc(F)cc2)OCc2cc(C#N)ccc21 (configuration not stated) [CITALOPRAM] | Positive
48 | NS(=O)(=O)c1cc(C(=O)O)c(NCc2ccco2)cc1Cl [FUROSEMIDE] | Negative
49 | CN(C)CCCN1c2ccccc2CCc2ccccc21 [IMIPRAMINE] | Positive
50 | CN[C@H]1CC[C@@H](c2ccc(Cl)c(Cl)c2)c2ccccc21 [SERTRALINE] | Positive
51 | CC(CN(C)C)CN1c2ccccc2CCc2ccccc21 (configuration not stated) [TRIMIPRAMINE] | Positive
52 | O=C1CC2(CCCC2)CC(=O)N1CCCCN1CCN(c2ncccn2)CC1 [BUSPIRONE] | Negative
53 | Cn1c(=O)c2c(ncn2C)n(C)c1=O [CAFFEINE] | Negative
54 | CC(C)(N)Cc1ccccc1 [PHENTERMINE] | Positive
55 | S=C=Nc1cccc2ccccc12 [1-NAPHTHYLISOTHIOCYANATE] | Negative
56 | CSc1ccc2c(c1)N(CCC1CCCCN1C)c1ccccc1S2 (configuration not stated) [THIORIDAZINE] | Positive
57 | CC1(C)NC(=O)N(C[C@@H](COc2ccc(-c3ccc(OC(F)(F)F)cc3)cc2)N(O)C=O)C1=O | Negative
58 | ClC(Cl)(Cl)Cl [CARBON TETRACHLORIDE] | Negative
59 | N[C@H]1C(O)O[C@H](CO)[C@@H](O)[C@@H]1O (some centres not stated) [GLUCOSAMINE] | Negative
60 | CN1[C@@H]2CC[C@H]1C[C@@H](OC(=O)C(CO)c1ccccc1)C2 (some centres not stated) [ATROPINE] | Positive
61 | Clc1ccccc1CNC[C@H]1CC[C@H](CNCc2ccccc2Cl)CC1 | Positive
62 | CN(C)CCCC1c2ccccc2Nc2ccc(Cl)cc21 (configuration not stated) [CLOMACRAN] | Positive
63 | CN(C)CCN(Cc1cccs1)c1ccccn1 | Negative

Row | Compound | Phospholipidosis
64 | C[C@](N)(Cc1ccc(O)c(O)c1)C(=O)O [METHYLDOPA] | Negative
65 | O=C1CN(/N=C/c2ccc(-c3ccc([N+](=O)[O-])cc3)o2)C(O)=N1 [DANTROLENE] | Negative
66 | CC(C)(Oc1ccc(C2CC2(Cl)Cl)cc1)C(=O)O (configuration not stated) [CIPROFIBRATE] | Negative
67 | CN/C(=N/CCSCc1nc[nH]c1C)NC#N [CIMETIDINE] | Negative
68 | Cc1ccc(C(=O)Nc2ccc(S(=O)(=O)O)c3cc(S(=O)(=O)O)cc(S(=O)(=O)O)c23)cc1NC(=O)c1cccc(NC(=O)Nc2cccc(C(=O)Nc3cc(C(=O)Nc4ccc(S(=O)(=O)O)c5cc(S(=O)(=O)O)cc(S(=O)(=O)O)c45)ccc3C)c2)c1 [SURAMIN] | Positive
69 | Cc1ccc(C)c(OCCCC(C)(C)C(=O)O)c1 [GEMFIBROZIL] | Negative
70 | CNC(=O)Oc1ccc2c(c1)[C@]1(C)CCN(C)[C@@H]1N2C [PHYSOSTIGMINE] | Negative
71 | CC12CC3CC(C)(C1)CC(N)(C3)C2 [MEMANTINE] | Positive
72 | NC(=O)OCC(COC(N)=O)c1ccccc1 [FELBAMATE] | Negative
73 | CN1CCN(C(c2ccccc2)c2ccccc2)CC1 [CYCLIZINE] | Positive
74 | C[C@H]1c2cccc(O)c2C(=O)C2=C(O)[C@]3(O)C(=O)C(C(N)=O)=C(O)[C@@H](N(C)C)[C@@H]3[C@@H](O)[C@@H]21.O [DOXYCYCLINE] | Negative
75 | NCCc1cc(O)c(O)cc1O [OXIDOPAMINE] | Positive
76 | CN1C(=O)CN=C(c2ccccc2)c2cc(Cl)ccc21 [DIAZEPAM] | Negative
77 | CC(CCCN(CCCl)CCCl)Nc1ccnc2cc(Cl)ccc12 (configuration not stated) [CHLOROQUINE MUSTARD] | Positive
78 | NC(N)=Nc1nc(CSCCC(N)=NS(N)(=O)=O)cs1 [FAMOTIDINE] | Negative
79 | N=C(N)c1ccc(/C=C/c2ccc(C(=N)N)cc2)cc1 [STILBAMIDINE] | Positive
80 | NC[C@@H]1CC[C@@H](N)[C@@H](O[C@H]2[C@H](O)[C@@H](O[C@H]3O[C@H](CO)[C@@H](O)[C@H](N)[C@H]3O)[C@H](N)C[C@@H]2N)O1 [DIBEKACIN] | Positive
81 | CC1=CC(=O)c2ccccc2C1=O [MENADIONE] | Negative
82 | CC(=O)O[C@]1(C(C)=O)CC[C@H]2[C@@H]3C=C(Cl)C4=CC(=O)[C@@H]5C[C@@H]5[C@]4(C)[C@H]3CC[C@@]21C [CYPROTERONE ACETATE] | Negative

From ChEMBL document CHEMBL1697681, “Predicting phospholipidosis using machine learning” (Mol Pharm, 2010)
